Experimental data from ChEMBL document CHEMBL3525904, “Effect of structural variation on aldehyde oxidase-catalyzed oxidation of zoniporide” (Drug Metab Dispos, 2012).

How the values were obtained:
Type in all cases: ADME, subcellular
Aldehyde oxidase [1] = target: T1, Aldehyde oxidase (Homo sapiens, UniProt Q06278); test: Drug level in human liver S9 fraction assessed as aldehyde oxidase-mediated compound formation treated with 10 uM N-carbamimidoyl-5-cyclopropyl-1-(quinolin-4-yl)-1H-pyrazole-4-carboxamide by spectrometry
T1 sequence (Q06278 whole entry): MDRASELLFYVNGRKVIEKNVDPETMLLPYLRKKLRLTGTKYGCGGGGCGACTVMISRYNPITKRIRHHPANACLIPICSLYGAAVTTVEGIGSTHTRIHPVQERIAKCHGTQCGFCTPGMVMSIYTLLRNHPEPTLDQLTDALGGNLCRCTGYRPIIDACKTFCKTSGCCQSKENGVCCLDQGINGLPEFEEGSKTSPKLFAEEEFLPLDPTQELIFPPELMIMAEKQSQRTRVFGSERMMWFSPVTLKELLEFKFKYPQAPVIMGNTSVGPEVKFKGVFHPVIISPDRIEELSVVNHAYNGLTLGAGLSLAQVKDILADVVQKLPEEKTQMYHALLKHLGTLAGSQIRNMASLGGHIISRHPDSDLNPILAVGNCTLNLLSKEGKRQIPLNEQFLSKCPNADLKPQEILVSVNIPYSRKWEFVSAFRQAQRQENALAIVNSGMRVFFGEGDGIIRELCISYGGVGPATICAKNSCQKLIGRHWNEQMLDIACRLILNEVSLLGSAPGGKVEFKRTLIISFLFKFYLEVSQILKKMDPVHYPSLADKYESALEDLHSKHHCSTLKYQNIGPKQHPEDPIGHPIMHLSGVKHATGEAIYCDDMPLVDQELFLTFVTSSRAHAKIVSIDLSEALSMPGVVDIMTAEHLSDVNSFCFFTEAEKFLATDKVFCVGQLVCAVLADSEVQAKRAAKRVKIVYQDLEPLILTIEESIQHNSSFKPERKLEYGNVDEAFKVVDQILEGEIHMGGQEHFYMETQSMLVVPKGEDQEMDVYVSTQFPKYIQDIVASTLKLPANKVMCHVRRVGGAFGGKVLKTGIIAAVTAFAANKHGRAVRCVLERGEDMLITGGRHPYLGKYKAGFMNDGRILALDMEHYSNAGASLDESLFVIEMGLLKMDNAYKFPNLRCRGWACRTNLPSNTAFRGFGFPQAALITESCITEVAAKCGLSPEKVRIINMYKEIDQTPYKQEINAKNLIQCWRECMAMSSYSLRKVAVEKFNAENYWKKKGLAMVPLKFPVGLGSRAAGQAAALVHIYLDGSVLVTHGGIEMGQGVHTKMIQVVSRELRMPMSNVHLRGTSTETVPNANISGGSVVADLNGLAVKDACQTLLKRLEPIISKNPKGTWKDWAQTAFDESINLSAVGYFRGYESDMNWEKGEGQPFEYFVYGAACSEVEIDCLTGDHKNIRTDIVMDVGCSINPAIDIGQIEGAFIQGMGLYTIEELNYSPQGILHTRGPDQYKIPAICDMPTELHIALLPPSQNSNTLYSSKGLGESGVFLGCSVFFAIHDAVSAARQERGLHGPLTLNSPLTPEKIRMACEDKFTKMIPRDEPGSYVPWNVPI

Aldehyde oxidase [2] = target: T1, Aldehyde oxidase; test: Drug level in human liver S9 fraction assessed as aldehyde oxidase-mediated compound formation treated with 10 uM N-carbamimidoyl-5-cyclopropyl-1-(quinolin-6-yl)-1H-pyrazole-4-carboxamide by spectrometry
Aldehyde oxidase [3] = target: T1, Aldehyde oxidase; test: Drug level in human liver S9 fraction assessed as aldehyde oxidase-mediated compound formation treated with 10 uM 1-(1H-benzo[d]imidazol-4-yl)-N-carbamimidoyl-5-cyclopropyl-1H-pyrazole-4-carboxamide by spectrometry

N=C(N)NC(=O)c1cnn(-c2cc(=O)[nH]c3ccccc23)c1C1CC1
Drug metabolism (Aldehyde oxidase [1]): metabolite_detected

N=C(N)NC(=O)c1cnn(-c2ccc3[nH]c(=O)ccc3c2)c1C1CC1
Drug metabolism (Aldehyde oxidase [2]): metabolite_detected

N=C(N)NC(=O)c1cnn(-c2cccc3[nH]c(=O)[nH]c23)c1C1CC1
Drug metabolism (Aldehyde oxidase [3]): metabolite_detected
